These results are taken from patent US20100247444A1, “COMPOUND, […], NUCLEAR […] RESONANCE […] METHOD, NUCLEAR […] RESONANCE IMAGING METHOD, MASS SP[…] AND MASS SP[…] METHOD” (KYOTO UNIVERSITY, priority 2007, published 2010).

The conditions of this series: Meth-A cancer bearing BALB/c mouse, 100 μl of 2 mg/ml in PBS via tail vein, organs collected after 1 hour. The method, then:
(i) Preparation of a cancer bearing mouse Meth-A cells cultured in abdominal cavity of a BALB/c mouse were harvested by administrating 50 ml saline to the mouse. The cells were collected by centrifugation and resuspended in PBS (50 ml). The cells were counted and prepared at 2.0×10^7/ml. 100 μl of the solution containing the cells was subcutaneously injected to a left foot of another BALE/c mouse. […] After 1 hour, the mouse was dissected and the necessary organs (blood (200 μl), liver, kidney, cancer) were collected into microtubes. 1× Lysis buffer (500 μl) was added to each of the tubes and the organs were mashed by using beads. The microtubes were centrifuged (14,000 rpm, 30 min) for the debris to be precipitated and the supernatants were collected and subjected to multiple resonance measurement utilizing magnetic coherence transfer between three elements of ^1H—^13C—^15N.

As for `[13CH3][15N+]([13CH3])([13CH3])CCO` [^13C3—^15N-choline chloride], the “signals derived from methyl groups of cholines (triple resonance NMR, 3.0 ppm) in cancer” value (cancer tissue lysate supernatant) is recorded as “detected”. For the same molecule, the “signals derived from methyl groups of cholines (triple resonance NMR, 3.0 ppm) in kidney” value (kidney lysate supernatant) is “detected”.
